Assay results from ChEMBL document CHEMBL1201862, “PubChem BioAssay data set” (2004).
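96-well plates; 48 h exposure; 5 concentrations. Endpoints by linear interpolation between flanking doses. Not reached: highest tested concentration assigned. GI50 marks 50% less growth.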 Activity calls are given as the source filed them. Rule as the data show it: active = GI50 up to about 1.1 µM and inactive = higher.

Columns and labels:
Assay in all cases: NCI anticancer screen, dose series, 48 h
[1] = system: NCI/ADR-RES
[2] = system: OVCAR-5
[3] = system: SK-MEL-5
[4] = system: T47D
[5] = system: HCC 2998
[6] = system: HCT-15
[7] = system: SNB-75
[8] = system: ACHN
[9] = system: NCI-H460
[10] = system: MDA-N
[11] = system: HT-29
[12] = system: SNB-19
[13] = system: RPMI-8226
[14] = system: SK-MEL-28
[15] = system: OVCAR-4
[16] = system: CAKI-1
[17] = system: MDA-MB-231
[18] = system: NCI-H23
[19] = system: NCI-H226
[20] = system: HOP-92
[21] = system: IGROV-1
[22] = system: MDA-MB-435
[23] = system: SK-OV-3
[24] = system: A549
[25] = system: COLO 205
[26] = system: K562
[27] = system: NCI-H522
[28] = system: HOP-62
[29] = system: SF-295
[30] = system: M14
[31] = system: HL-60
[32] = system: TK-10
[33] = system: SN12C
[34] = system: OVCAR-3
[35] = system: UACC-257
[36] = system: LOX IMVI
[37] = system: HCT-116
[38] = system: CCRF-CEM
[39] = system: OVCAR-8
[40] = system: SK-MEL-2
[41] = system: SR
[42] = system: MOLT-4
[43] = system: DU-145
[44] = system: U-251
[45] = system: PC-3
[46] = system: UO-31
[47] = system: Hs-578T
[48] = system: SW-620
[49] = system: 786-0
[50] = system: SF-268
[51] = system: EKVX
[52] = system: SF-539
[53] = system: MCF7
[54] = system: RXF 393
[55] = system: UACC-62
[56] = system: KM12
[57] = system: A498

## CCP(=O)(CC)C(Cl)(Cl)C(=O)NC
[1]
  GI50: > 100 µM (inactive)
[2]
  GI50: > 100 µM (inactive)
[3]
  GI50: > 100 µM (inactive)
[4]
  GI50: > 100 µM (inactive)
[5]
  GI50: > 100 µM (inactive)
[6]
  GI50: > 100 µM
[7]
  GI50: > 100 µM (inactive)
[8]
  GI50: > 100 µM (inactive)
[9]
  GI50: > 100 µM (inactive)
[10]
  GI50: > 100 µM (inactive)
[11]
  GI50: > 100 µM (inactive)
[12]
  GI50: > 100 µM (inactive)
[13]
  GI50: > 100 µM (inactive)
[14]
  GI50: > 100 µM (inactive)
[15]
  GI50: > 100 µM (inactive)
[16]
  GI50: > 100 µM (inactive)
[17]
  GI50: > 100 µM (inactive)
[18]
  GI50: > 100 µM (inactive)
[19]
  GI50: > 100 µM (inactive)
[20]
  GI50: > 100 µM (inactive)
[21]
  GI50: > 100 µM (inactive)
[22]
  GI50: > 100 µM (inactive)
[23]
  GI50: > 100 µM (inactive)
[24]
  GI50: > 100 µM (inactive)
[25]
  GI50: > 100 µM (inactive)
[26]
  GI50: > 100 µM (inactive)
[27]
  GI50: > 100 µM (inactive)
[28]
  GI50: > 100 µM (inactive)
[29]
  GI50: > 100 µM (inactive)
[30]
  GI50: > 100 µM (inactive)
[31]
  GI50: > 100 µM (inactive)
[32]
  GI50: > 100 µM (inactive)
[33]
  GI50: > 100 µM (inactive)
[34]
  GI50: > 100 µM (inactive)
[35]
  GI50: > 100 µM (inactive)
[36]
  GI50: > 100 µM (inactive)
[37]
  GI50: > 100 µM (inactive)
[38]
  GI50: > 100 µM (inactive)
[39]
  GI50: > 100 µM (inactive)
[40]
  GI50: > 100 µM (inactive)
[41]
  GI50: > 100 µM (inactive)
[42]
  GI50: > 100 µM (inactive)
[43]
  GI50: > 100 µM (inactive)
[44]
  GI50: > 100 µM (inactive)
[45]
  GI50: > 100 µM (inactive)
[46]
  GI50: > 100 µM (inactive)
[47]
  GI50: > 100 µM (inactive)
[48]
  GI50: > 100 µM (inactive)

## CC(=O)Oc1c(C)cc2c(c1C)C(C)CN2C(C)=O (stereo unspecified)
[1]
  GI50: > 100 µM (inactive)
[49]
  GI50: > 100 µM (inactive)
[2]
  GI50: > 100 µM (inactive)
[3]
  GI50: > 100 µM (inactive)
[50]
  GI50: > 100 µM (inactive)
[4]
  GI50: > 100 µM (inactive)
[5]
  GI50: > 100 µM (inactive)
[6]
  GI50: > 100 µM
[7]
  GI50: 94.2 µM (inactive)
[51]
  GI50: > 100 µM (inactive)
[8]
  GI50: > 100 µM (inactive)
[9]
  GI50: > 100 µM (inactive)
[10]
  GI50: > 100 µM (inactive)
[11]
  GI50: > 100 µM (inactive)
[12]
  GI50: > 100 µM (inactive)
[52]
  GI50: > 100 µM (inactive)
[13]
  GI50: > 100 µM (inactive)
[14]
  GI50: > 100 µM (inactive)
[15]
  GI50: > 100 µM (inactive)
[17]
  GI50: > 100 µM (inactive)
[18]
  GI50: > 100 µM (inactive)
[19]
  GI50: > 100 µM (inactive)
[20]
  GI50: > 100 µM (inactive)
[21]
  GI50: > 100 µM (inactive)
[22]
  GI50: > 100 µM (inactive)
[23]
  GI50: > 100 µM (inactive)
[24]
  GI50: > 100 µM (inactive)
[25]
  GI50: > 100 µM (inactive)
[53]
  GI50: > 100 µM (inactive)
[54]
  GI50: > 100 µM (inactive)
[26]
  GI50: > 100 µM (inactive)
[27]
  GI50: > 100 µM (inactive)
[28]
  GI50: > 100 µM (inactive)
[29]
  GI50: > 100 µM (inactive)
[30]
  GI50: > 100 µM (inactive)
[55]
  GI50: > 100 µM (inactive)
[31]
  GI50: > 100 µM (inactive)
[32]
  GI50: > 100 µM (inactive)
[33]
  GI50: > 100 µM (inactive)
[34]
  GI50: > 100 µM (inactive)
[35]
  GI50: > 100 µM (inactive)
[36]
  GI50: > 100 µM (inactive)
[37]
  GI50: > 100 µM (inactive)
[38]
  GI50: > 100 µM (inactive)
[39]
  GI50: > 100 µM (inactive)
[40]
  GI50: > 100 µM (inactive)
[56]
  GI50: > 100 µM (inactive)
[42]
  GI50: > 100 µM (inactive)
[43]
  GI50: > 100 µM (inactive)
[44]
  GI50: > 100 µM (inactive)
[45]
  GI50: > 100 µM (inactive)
[46]
  GI50: > 100 µM (inactive)
[47]
  GI50: > 100 µM (inactive)
[48]
  GI50: > 100 µM (inactive)
[57]
  GI50: > 100 µM (inactive)

## CC1=NN(c2cccc(Cl)c2)C(=N/c2nc3ccccc3s2)/C1=C\c1ccc(Cl)cc1
[1]
  GI50: 22.5 µM (inactive)
[49]
  GI50: 18.8 µM (inactive)
[2]
  GI50: 22.6 µM (inactive)
[3]
  GI50: 15.8 µM (inactive)
[50]
  GI50: 19.3 µM (inactive)
[4]
  GI50: 33.6 µM (inactive)
[5]
  GI50: 16.4 µM (inactive)
[6]
  GI50: 14.2 µM
[7]
  GI50: 26.4 µM (inactive)
[51]
  GI50: 33.2 µM (inactive)
[8]
  GI50: 24.3 µM (inactive)
[9]
  GI50: 17.2 µM (inactive)
[10]
  GI50: 23.4 µM (inactive)
[11]
  GI50: 17.9 µM (inactive)
[52]
  GI50: 18.4 µM (inactive)
[13]
  GI50: 37.2 µM (inactive)
[14]
  GI50: 20.8 µM (inactive)
[17]
  GI50: 20.7 µM (inactive)
[18]
  GI50: 18.7 µM (inactive)
[19]
  GI50: 21.2 µM (inactive)
[20]
  GI50: 17.4 µM (inactive)
[21]
  GI50: 13.5 µM (inactive)
[23]
  GI50: 36.4 µM (inactive)
[53]
  GI50: 22.2 µM (inactive)
[54]
  GI50: 20.3 µM (inactive)
[26]
  GI50: 29 µM (inactive)
[27]
  GI50: 18.7 µM (inactive)
[28]
  GI50: 21.5 µM (inactive)
[29]
  GI50: 23.4 µM (inactive)
[30]
  GI50: 23.8 µM (inactive)
[31]
  GI50: 22.4 µM (inactive)
[32]
  GI50: 26.4 µM (inactive)
[34]
  GI50: 21.7 µM (inactive)
[35]
  GI50: 20.7 µM (inactive)
[36]
  GI50: 18.2 µM (inactive)
[37]
  GI50: 16.9 µM (inactive)
[38]
  GI50: 26.1 µM (inactive)
[39]
  GI50: 19.8 µM (inactive)
[40]
  GI50: 17.9 µM (inactive)
[41]
  GI50: 24.7 µM (inactive)
[42]
  GI50: 24.4 µM (inactive)
[43]
  GI50: 34.2 µM (inactive)
[44]
  GI50: 14.8 µM (inactive)
[45]
  GI50: 16.4 µM (inactive)
[46]
  GI50: 23.9 µM (inactive)
[47]
  GI50: 23 µM (inactive)
[48]
  GI50: 19.9 µM (inactive)
[57]
  GI50: 22.2 µM (inactive)
